ChEMBL document CHEMBL1250526, “Delphinidin, a dietary anthocyanidin in berry fruits, inhibits human glyoxalase I” (Bioorg Med Chem, 2010)
Calls of active or inactive are those of the source. No cut-off for these calls is given here.

Key:
Lactoylglutathione lyase = Lactoylglutathione lyase (Homo sapiens, UniProt Q04760); experiment: Inhibition of human recombinant glyoxalase 1 assessed as S-D-lactoylglutathione after 15 mins by spectrophotometric analysis
HL-60 [1] = experiment: Antiproliferative activity against human HL60 cells at up to 100 uM after 48 hrs by MTS assay; format: functional, cell-based
HL-60 [2] = experiment: Antiproliferative activity against human HL60 cells after 24 hrs by MTS assay; format: functional, cell-based; conditions: HL-60, 24 h
HL-60 [3] = experiment: Antiproliferative activity against human HL60 cells after 48 hrs by MTS assay; format: functional, cell-based
HL-60 [4] = experiment: Antiproliferative activity against human HL60 cells at up to 100 uM by MTS assay; format: functional, cell-based; conditions: TDE = time-dependent effect
HL-60 [5] = experiment: Induction of apoptosis in human HL60 cells assessed as nucleosomal DNA fragmentation at up to 100 uM using ethidium bromide staining by agarose gel electrophoresis; format: functional, cell-based; conditions: TDE = time-dependent effect
HL-60 [6] = experiment: Induction of apoptosis in human HL60 cells assessed as nucleosomal DNA fragmentation after 48 hrs using ethidium bromide staining by agarose gel electrophoresis; format: functional, cell-based

Chain of Lactoylglutathione lyase (Q04760 whole entry): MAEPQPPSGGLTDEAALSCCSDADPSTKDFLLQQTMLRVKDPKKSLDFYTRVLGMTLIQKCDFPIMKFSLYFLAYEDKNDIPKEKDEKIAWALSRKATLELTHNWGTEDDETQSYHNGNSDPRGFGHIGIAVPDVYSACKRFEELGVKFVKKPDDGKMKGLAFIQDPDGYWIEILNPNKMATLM

Row | IC50 (Lactoylglutathione lyase) [µM] | IC50 (HL-60 [2]) [µM] | IC50 (HL-60 [3]; HL-60, 48 h) [µM] | Structure (SMILES) | Activity (HL-60 [1]) | Activity (HL-60 [3]) | Activity (HL-60 [4]) | Activity (HL-60 [5]) | Activity (HL-60 [6])
1 | 11.7 | – | – | Oc1cc(O)c2cc(O)c(-c3ccc(O)c(O)c3)[o+]c2c1 [CYANIDIN CHLORIDE] | Active | – | – | – | –
2 | 16.4 | – | – | Oc1ccc(-c2[o+]c3cc(O)cc(O)c3cc2O)cc1 [PELARGONIDIN CHLORIDE] | Active | – | – | – | –
3 | 1.9 | 80 | 40 | Oc1cc(O)c2cc(O)c(-c3cc(O)c(O)c(O)c3)[o+]c2c1 [DELPHINIDIN CHLORIDE] | – | Dose-dependent effect | tde | tde | Dose-dependent effect
